Patent US10975056B2 (GlaxoSmithKline Intellectual Property Development Limited, priority 2016, dated 2021)
Read-outs that look alike come from different tables or passages of the source.

Experiments:
[1] = test system: erythroid progenitor cells (EPCs); test: Fetal hemoglobin (HbF) ELISA in day 7 erythroid progenitor cells; type: cell-based, human; conditions: Homo sapiens, Erythroid progenitor cell, HbF ELISA, day 7 EPCs, 5 days; read-out: EPC ELISA (pEC50 category) (converted);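 also: for fetal hemoglobin induction normalized to vehicle-treated cells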
In short: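 CD34+-derived EPCs, 1,000 cells/well, rhEPO 3 U/mL; Compound A 22-pt series, […]; 5 d, 37° C, 5% CO2. Freeze-thaw lysis, anti-HbF capture + HRP anti-HbF, TMB, OD450. Normalized to DMSO wells.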

DNMT1 = DNMT1 (Homo sapiens, UniProt P26358); test: DNMT1 biochemical activity, breaklight assay and/or SPA assay
[2] = binned activity in either the breaklight or the SPA assay, read-out: DNMT1 BioChemical (pIC50 category) (converted)
[3] = binned activity in either the breaklight or the SPA assay

Sequence of DNMT1 (P26358 whole entry, looked up): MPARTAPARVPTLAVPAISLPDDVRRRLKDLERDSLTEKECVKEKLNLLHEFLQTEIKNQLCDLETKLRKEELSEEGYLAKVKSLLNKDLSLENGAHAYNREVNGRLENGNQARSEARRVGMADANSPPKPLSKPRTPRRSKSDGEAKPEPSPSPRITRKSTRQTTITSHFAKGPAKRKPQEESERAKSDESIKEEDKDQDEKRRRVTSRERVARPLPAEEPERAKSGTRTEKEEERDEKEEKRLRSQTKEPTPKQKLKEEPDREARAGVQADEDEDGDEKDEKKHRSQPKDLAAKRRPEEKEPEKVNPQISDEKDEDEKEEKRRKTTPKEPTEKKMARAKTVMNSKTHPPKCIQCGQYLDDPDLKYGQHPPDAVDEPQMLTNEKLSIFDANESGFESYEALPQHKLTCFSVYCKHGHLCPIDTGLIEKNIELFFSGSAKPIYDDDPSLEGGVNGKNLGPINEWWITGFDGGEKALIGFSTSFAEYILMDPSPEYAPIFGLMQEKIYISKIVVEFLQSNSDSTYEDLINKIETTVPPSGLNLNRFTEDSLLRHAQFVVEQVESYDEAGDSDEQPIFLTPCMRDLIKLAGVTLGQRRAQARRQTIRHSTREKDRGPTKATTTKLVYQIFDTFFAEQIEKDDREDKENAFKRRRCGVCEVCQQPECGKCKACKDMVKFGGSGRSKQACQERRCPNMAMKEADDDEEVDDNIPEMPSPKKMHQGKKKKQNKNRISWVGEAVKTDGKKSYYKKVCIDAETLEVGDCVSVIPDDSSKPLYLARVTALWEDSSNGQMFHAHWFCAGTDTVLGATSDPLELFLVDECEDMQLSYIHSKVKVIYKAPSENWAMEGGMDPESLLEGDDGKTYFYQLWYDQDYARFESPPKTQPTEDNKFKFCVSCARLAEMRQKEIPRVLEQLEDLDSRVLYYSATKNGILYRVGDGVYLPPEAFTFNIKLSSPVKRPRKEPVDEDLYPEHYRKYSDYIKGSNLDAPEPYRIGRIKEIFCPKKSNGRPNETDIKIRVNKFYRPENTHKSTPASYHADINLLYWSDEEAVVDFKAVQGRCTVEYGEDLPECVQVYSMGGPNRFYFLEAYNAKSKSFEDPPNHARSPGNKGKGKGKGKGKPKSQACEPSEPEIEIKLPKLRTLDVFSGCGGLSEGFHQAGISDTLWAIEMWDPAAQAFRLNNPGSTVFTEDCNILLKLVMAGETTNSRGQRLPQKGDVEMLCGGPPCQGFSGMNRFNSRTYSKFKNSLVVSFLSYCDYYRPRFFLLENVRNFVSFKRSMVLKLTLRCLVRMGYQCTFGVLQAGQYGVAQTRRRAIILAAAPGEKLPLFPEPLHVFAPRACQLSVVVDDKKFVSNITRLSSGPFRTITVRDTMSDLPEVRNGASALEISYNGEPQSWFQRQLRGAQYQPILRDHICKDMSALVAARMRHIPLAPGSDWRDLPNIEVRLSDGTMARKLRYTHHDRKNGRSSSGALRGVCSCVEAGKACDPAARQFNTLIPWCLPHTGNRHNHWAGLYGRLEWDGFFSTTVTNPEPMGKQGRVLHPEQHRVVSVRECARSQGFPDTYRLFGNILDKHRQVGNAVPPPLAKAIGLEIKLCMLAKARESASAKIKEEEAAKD

EC50 [1] [µM]	IC50 (DNMT1; [2]) [µM]	DNMT1 BioChemical (pIC50 category) (DNMT1; [3])	IC50 (DNMT1; breaklight assay and/or SPA assay, repeated experimental runs, read-out: average pIC50 against DNMT1 (converted)) [µM]	average pIC50 against DNMT1 (DNMT1; breaklight assay and/or SPA assay, repeated experimental runs)	SMILES
1 to 31.6	0.316 to 1	–	–	–	CCc1c(C#N)c(SC(C(N)=O)c2ccccc2)nc(N2CC(OC)C2)c1C#N (stereo not drawn) [Example 54, 2-((3,5-Dicyano-4-ethyl-6-(3-methoxyazetidin-1-yl)pyridin-2-yl)thio)-2-phenylacetamide]
0.316 to 1	–	D (Category D: ≥6.5)	–	–	CCc1c(C#N)c(SC(C(N)=O)c2ccccc2)nc(N2CCC[C@@H](CNC(=O)CN)C2)c1C#N (stereo partly drawn) [Example 589, 2-amino-N-(((3S)-1-(6-((2-amino-2-oxo-1-phenylethyl)thio)-3,5-dicyano-4-ethylpyridin-2-yl)piperidin-3-yl)methyl)acetamide]
1 to 31.6	0.316 to 1	–	0.316 to 1	–	CCc1c(C#N)c(SCc2ccc(COC(C)=O)cc2)nc(N2CCCN(C)CC2)c1C#N [Example 82, 4-(((3,5-Dicyano-4-ethyl-6-(4-methyl-1,4-diazepan-1-yl)pyridin-2-yl)thio)methyl)benzyl acetate]
0.316 to 1	–	D (Category D: ≥6.5)	–	–	CCc1c(C#N)c(SC(C(N)=O)c2ccc(C(F)(F)F)cc2)nc(N2CCC(N)CC2)c1C#N (stereo not drawn) [Example 410, 2-((6-(4-aminopiperidin-1-yl)-3,5-dicyano-4-ethylpyridin-2-yl)thio)-2-(4-(trifluoromethyl)phenyl)acetamide]
0.316 to 1	0.316 to 1	–	–	–	CCc1c(C#N)c(SC(C(N)=O)c2ccccc2)nc(N2CCN(C3CCNCC3)CC2)c1C#N (stereo not drawn) [Example 13, 2-({3,5-dicyano-4-ethyl-6-[4-(piperidin-4-yl)piperazin-1-yl]pyridin-2-yl}sulfanyl)-2-phenylacetamide]
1 to 31.6	0.316 to 1	–	–	–	CCc1c(C#N)c(SCc2ccc(CNC(C)=O)cc2)nc(N2CCNC(=O)C2)c1C#N [Example 329]
1 to 31.6	–	D (Category D: ≥6.5)	–	–	N#Cc1c(SC(C(N)=O)c2ccccc2)nc(N2CCC(O)C2)c(C#N)c1C1CC1 (stereo not drawn) [Example 369, 2-((3,5-Dicyano-4-cyclopropyl-6-(3-hydroxypyrrolidin-1-yl)pyridin-2-yl)thio)-2-phenylacetamide]
0.316 to 1	–	D (Category D: ≥6.5)	–	–	CN(CC(=O)N1CC(O)C1)c1nc(SC(C(N)=O)c2ccccc2)c(C#N)c(C2CC2)c1C#N (stereo not drawn) [Example 392, 2-((3,5-Dicyano-4-cyclopropyl-6-((2-(3-hydroxyazetidin-1-yl)-2-oxoethyl) (methyl)amino)pyridin-2-yl)thio)-2-phenylacetamide]
1 to 31.6	–	D (Category D: ≥6.5)	–	–	CCc1c(C#N)c(SC(C(N)=O)c2ccccc2)nc(N2CC[C@H](N(C)C)C2)c1C#N (stereo partly drawn) [Example 539, 2-((3,5-dicyano-6-((S)-3-(dimethylamino)pyrrolidin-1-yl)-4-ethylpyridin-2-yl)thio)-2-phenylacetamide]
1 to 31.6	–	D (Category D: ≥6.5)	–	–	CCc1c(C#N)c(SCc2ccc(N(C)S(C)(=O)=O)cc2)nc(N2CC[C@H](CNC(=O)CN)C2)c1C#N [Example 650, (R)-2-amino-N-((1-(3,5-dicyano-4-ethyl-6-((4-(N-methylmethylsulfonamido)benzyl)thio)pyridin-2-yl)pyrrolidin-3-yl)methyl)acetamide]
< 0.316	–	D (Category D: ≥6.5)	–	> 6.5	CCc1c(C#N)c(SC(C(N)=O)c2ccccc2)nc(N2CCC(NC(=O)C(C)(C)N)CC2)c1C#N (stereo not drawn) [Example 148]
< 0.316	–	D (Category D: ≥6.5)	–	–	CCc1c(C#N)c(SC(C(N)=O)c2ccccc2)nc(N2CCC(NCc3ccc(OC)nc3)CC2)c1C#N (stereo not drawn) [Example 467, 2-((3,5-dicyano-4-ethyl-6-(4-(((6-methoxypyridin-3-yl)methyl)amino)piperidin-1-yl)pyridin-2-yl)thio)-2-phenylacetamide]
0.316 to 1	–	D (Category D: ≥6.5)	–	–	CCc1c(C#N)c(SC(C(N)=O)c2ccc(F)cc2)nc(N2CC[C@H](O)C2)c1C#N (stereo partly drawn) [Example 427, 2-((3,5-dicyano-4-ethyl-6-((S)-3-hydroxypyrrolidin-1-yl)pyridin-2-yl)thio)-2-(4-fluorophenyl) acetamide]
< 0.316	–	D (Category D: ≥6.5)	–	–	CCc1c(C#N)c(SC(C(N)=O)c2ccccc2)nc(N(C)CCN2CCC[C@H]2C)c1C#N (stereo partly drawn) [Example 459, 2-((3,5-dicyano-4-ethyl-6-(methyl(2-((R)-2-methylpyrrolidin-1-yl)ethyl)amino)pyridin-2-yl)thio)-2-phenylacetamide]
< 0.316	–	D (Category D: ≥6.5)	–	–	CCc1c(C#N)c(SC(C(N)=O)c2ccccc2)nc(N2CCOC(CN(CC)CC)C2)c1C#N (stereo not drawn) [Example 559, 2-((3,5-dicyano-6-(2-((diethylamino)methyl)morpholino)-4-ethylpyridin-2-yl)thio)-2-phenylacetamide]
< 0.316	–	D (Category D: ≥6.5)	–	–	CCc1c(C#N)c(SC(C(N)=O)c2ccccc2)nc(N(C)CCN2CCC[C@@H]2CO)c1C#N (stereo partly drawn) [Example 479, 2-((3,5-dicyano-4-ethyl-6-((2-((R)-2-(hydroxymethyl)pyrrolidin-1-yl)ethyl)(methyl)amino)pyridin-2-yl)thio)-2-phenylacetamide]
0.316 to 1	0.316 to 1	–	–	–	CCc1c(C#N)c(SC(C(N)=O)c2ccccc2)nc(N2CCN(Cc3cncs3)CC2)c1C#N (stereo not drawn) [Example 195, 2-((3,5-Dicyano-4-ethyl-6-(4-(thiazol-5-ylmethyl)piperazin-1-yl)pyridin-2-yl)thio)-2-phenylacetamide]
< 0.316	–	D (Category D: ≥6.5)	–	–	CCc1c(C#N)c(SC(C(N)=O)c2ccc(F)cc2)nc(N2CCC[C@H](CNCC(C)(C)C)C2)c1C#N (stereo partly drawn) [Example 594, 2-((3,5-dicyano-4-ethyl-6-((R)-3-((neopentylamino)methyl)piperidin-1-yl)pyridin-2-yl)thio)-2-(4-fluorophenyl)acetamide]
> 31.6	0.316 to 1	–	–	–	N#Cc1c(SC(C(N)=O)c2ccccc2)nc(N2CCCC(NCC(=O)O)C2)c(C#N)c1C1CC1 (stereo not drawn) [Example 175, 2-((1-(6-((2-Amino-2-oxo-1-phenylethyl)thio)-3,5-dicyano-4-cyclopropvlpyridin-2-yl)piperidin-3-yl)amino)acetic acid]
> 31.6	0.316 to 1	–	–	–	CCc1c(C#N)c(SC(C(N)=O)c2ccnc(C)c2)nc(N2CCCN(C)CC2)c1C#N (stereo not drawn) [Example 246, 2-((3,5-Dicyano-4-ethyl-6-(4-methyl-1,4-diazepan-1-yl)pyridin-2-yl)thio)-2-(2-methylpyridin-4-yl)acetamide]
1 to 31.6	–	D (Category D: ≥6.5)	–	–	CCc1c(C#N)c(S[C@H](C(N)=O)c2ccccc2)nc(N2C[C@H](O)CO2)c1C#N (single isomer, unassigned) [Example 694]
< 0.316	–	D (Category D: ≥6.5)	–	–	CCc1c(C#N)c(SC(C(N)=O)c2ccccc2)nc(N2CCC(NCC3(C)COC3)CC2)c1C#N (stereo not drawn) [Example 449, 2-((3,5-dicyano-4-ethyl-6-(4-(((3-methyloxetan-3-yl)methyl)amino)piperidin-1-yl)pyridin-2-yl)thio)-2-phenylacetamide]
1 to 31.6	–	D (Category D: ≥6.5)	–	–	CCc1c(C#N)c(SC(C(N)=O)c2ccccc2)nc(N2CC(ONC(=N)N)C2)c1C#N (stereo not drawn) [Example 676, 2-((3,5-dicyano-4-ethyl-6-(3-(guanidinooxy)azetidin-1-yl)pyridin-2-yl)thio)-2-phenylacetamide]
< 0.316	–	D (Category D: ≥6.5)	–	–	CCc1c(C#N)c(SC(C(N)=O)c2ccccc2)nc(N2CCCC(CNC)C2)c1C#N (stereo not drawn) [Example 566, 2-((3,5-dicyano-4-ethyl-6-(3-((methylamino)methyl)piperidin-1-yl)pyridin-2-yl)thio)-2-phenylacetamide]
< 0.316	–	D (Category D: ≥6.5)	–	–	CCc1c(C#N)c(SCc2ccc(N(C)S(C)(=O)=O)cc2)nc(N2CCC(NC(=O)[C@H](C)N)CC2)c1C#N [Example 585, (S)-2-amino-N-(1-(3,5-dicyano-4-ethyl-6-((4-(N-methylmethylsulfonamido)benzyl)thio)pyridin-2-yl)piperidin-4-yl)propanamide]
< 0.316	–	D (Category D: ≥6.5)	–	–	CCc1c(C#N)c(SCc2ccc(N(C)S(C)(=O)=O)cc2)nc(N(C)CCN(CC)CC)c1C#N [Example 579, N-(4-(((3,5-dicyano-6-((2-(diethylamino)ethyl)(methyl)amino)-4-ethylpyridin-2-yl)thio)methyl)phenyl)-N-methylmethanesulfonamide]
1 to 31.6	0.316 to 1	–	–	–	CCc1c(C#N)c(SCc2ccc(N)nc2)nc(N2CCCN(C)CC2)c1C#N [Example 300, 2-(((6-Aminopyridin-3-yl)methyl)thio)-4-ethyl-6-(4-methyl-1,4-diazepan-1-yl)pyridine-3,5-dicarbonitrile]
< 0.316	–	D (Category D: ≥6.5)	–	–	CCc1c(C#N)c(SC(C(N)=O)c2ccccc2)nc(N(C)CC(=O)N2C[C@H](O)C[C@H](O)C2)c1C#N (stereo partly drawn) [Example 659, 2-((3,5-dicyano-6-((2-((3R,5S)-3,5-dihydroxypiperidin-1-yl)-2-oxoethyl)(methyl)amino)-4-ethylpyridin-2-yl)thio)-2-phenylacetamide]
> 31.6	0.316 to 1	–	–	–	CCc1c(C#N)c(SC(C(N)=O)c2ccncc2)nc(N2CCN(C)C(=O)C2)c1C#N (stereo not drawn) [Example 10, 2-{[3,5-dicyano-4-ethyl-6-(4-methyl-3-oxopiperazin-1-yl)pyridin-2-yl]sulfanyl}-2-(pyridin-4-yl)acetamide]
